Here are results for 34 molecules from ChEMBL document CHEMBL3045031, “Study on synthesis of thalidomide analogues and their bioactivities; inhibition on iNOS pathway and cytotoxic effects” (Med Chem Res, 2012).

For test [1], the system named is HL-60. As to the kind of experiment: Cytotoxicity against Homo sapiens (human) HL60 cells after 24 hr by MTT assay. The test is classed as functional, cell-based. The conditions noted are these: HL-60, 24 h.
The test system of test [2] is NUGC. As to the kind of experiment: Cytotoxicity against Homo sapiens (human) NUGC cells after 24 hr by MTT assay. The test is classed as functional, cell-based. On the technique in general: Tetrazolium assays rely on reduction of a dye to a coloured formazan, in cell work by metabolically active cells.
Test [3] relates to HEp-2. As to the kind of experiment: Cytotoxicity against Homo sapiens (human) Hep2 cells after 24 hr by MTT assay. The test is classed as functional, cell-based. The conditions noted are these: HEp-2, 24 h.
The target in test [4] is T1, Nitric oxide synthase, inducible (Mus musculus) (UniProt P29477).
T1 sequence (whole entry): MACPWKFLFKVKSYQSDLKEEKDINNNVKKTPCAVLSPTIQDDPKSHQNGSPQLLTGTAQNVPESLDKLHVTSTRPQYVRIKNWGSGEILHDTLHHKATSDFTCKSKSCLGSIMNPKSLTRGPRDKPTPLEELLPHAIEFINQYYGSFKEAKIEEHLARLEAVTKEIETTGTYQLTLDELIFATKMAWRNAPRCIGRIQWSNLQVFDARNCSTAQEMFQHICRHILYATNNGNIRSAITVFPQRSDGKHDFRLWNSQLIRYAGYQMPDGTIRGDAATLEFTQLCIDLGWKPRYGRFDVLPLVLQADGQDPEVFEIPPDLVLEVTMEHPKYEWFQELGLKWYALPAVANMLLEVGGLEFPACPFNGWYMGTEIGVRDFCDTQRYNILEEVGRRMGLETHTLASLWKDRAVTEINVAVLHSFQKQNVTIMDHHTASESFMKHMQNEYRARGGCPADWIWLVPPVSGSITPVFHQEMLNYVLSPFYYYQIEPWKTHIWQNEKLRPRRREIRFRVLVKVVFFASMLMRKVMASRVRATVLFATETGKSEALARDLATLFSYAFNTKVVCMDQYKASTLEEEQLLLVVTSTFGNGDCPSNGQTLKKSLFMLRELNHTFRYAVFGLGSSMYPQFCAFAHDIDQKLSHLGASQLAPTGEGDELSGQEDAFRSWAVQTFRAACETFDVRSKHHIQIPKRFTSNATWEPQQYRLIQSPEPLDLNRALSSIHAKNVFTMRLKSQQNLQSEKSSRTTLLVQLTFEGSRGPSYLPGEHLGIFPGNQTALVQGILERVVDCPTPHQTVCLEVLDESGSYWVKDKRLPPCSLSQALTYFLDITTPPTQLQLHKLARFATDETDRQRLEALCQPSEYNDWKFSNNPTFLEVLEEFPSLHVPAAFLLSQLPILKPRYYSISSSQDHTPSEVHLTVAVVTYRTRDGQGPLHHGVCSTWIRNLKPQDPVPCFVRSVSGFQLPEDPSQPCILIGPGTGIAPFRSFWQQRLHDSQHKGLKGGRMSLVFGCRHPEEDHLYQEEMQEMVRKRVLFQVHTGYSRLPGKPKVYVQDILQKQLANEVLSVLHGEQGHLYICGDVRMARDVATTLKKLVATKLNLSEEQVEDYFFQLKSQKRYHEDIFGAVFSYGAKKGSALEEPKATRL
As to the kind of experiment: Inhibition of iNOS in Mus musculus (mouse) RAW 264.7 cells assessed as inhibition of LPS-induced nitrite production pretreated for 24 hr before stimulation with LPS measured after 18 hr by […]. Further details: concentration or dose not given beside the values. As to conditions: concentration not given here. For orientation: ELISA stands for enzyme-linked immunosorbent assay.

A short description of test [5]: Cytotoxicity against Homo sapiens (human) HONE1 cells after 24 hr by MTT assay. The format is functional, cell-based. As to conditions: HONE1, 24 h.

The term IC50 denotes the midpoint of a concentration-inhibition curve. Usually inhibition stands for the change of the read-out against control, counted positive when it falls. As for `O=C1c2ccccc2C(=O)N1c1cccc([N+](=O)[O-])c1`, the IC50 in test [1] is 174 µM; in test [2], greater than 200 µM; in test [3], 179 µM. In test [4], the inhibition is 90.6%.
Turning to `O=C1c2ccccc2C(=O)N1c1ccccn1`, the IC50 was greater than 200 µM in test [1], greater than 200 µM in test [2], 65.8 µM in test [3] and 156 µM in test [5]. For the same molecule, the inhibition in test [4] stood at 67.6%.
As to `O=C1C2C3C=CC(CC3)C2C(=O)N1c1ccccc1` (stereo unspecified), the figures for the IC50 in test [1], in test [3] and in test [5] were 118 µM, 41.2 µM and greater than 200 µM, respectively. In addition, the inhibition in test [4] came out at 82%.
Take `O=C1c2ccccc2C(=O)N1c1ccc(S)cc1`: the IC50 in test [1], in test [2], in test [3] and in test [5] was greater than 200 µM each time. In addition, the inhibition in test [4] was 94.5%.
Consider `Cc1ccc2c(c1)C(=O)N(Cc1ccccc1N)C2=O`, for which the IC50 in test [1], in test [2] and in test [5] was greater than 200 µM in each case. In addition, in test [4], the inhibition was determined as 98.4%.
In the case of `Nc1cccc(CN2C(=O)c3ccccc3C2=O)c1`, the figures for the IC50 in test [1], in test [2] and in test [5] were 78.1 µM, greater than 200 µM and greater than 200 µM, respectively. In addition, the inhibition in test [4] was 91.9%.
As for `O=C1C2C3C=CC(CC3)C2C(=O)N1c1ccc(S)cc1` (stereo unspecified), in test [4], the inhibition came out at 87.9%.
As to `O=C1C2C3C=CC(CC3)C2C(=O)N1c1ncc(Cl)cc1Cl` (stereo unspecified), the IC50 is 139 µM in test [1], greater than 200 µM in test [3] and greater than 200 µM in test [5]. For the same molecule, in test [4], the inhibition turned out to be 77.9%.
As to `N#Cc1ccc(N2C(=O)[C@@H]3C4C=CC(CC4)[C@@H]3C2=O)cc1`, the IC50 in test [5] was greater than 200 µM. Besides, in test [4], the inhibition was determined as 68.4%.
With `O=C1C2C3C=CC(CC3)C2C(=O)N1c1ccc(Br)cn1` (stereo unspecified), the figures for the IC50 in test [1], in test [2] and in test [3] were greater than 200 µM, greater than 200 µM and 150 µM, respectively. Besides, the inhibition in test [4] came out at 56.6%.
In the case of `Cc1ccc2c(c1)C(=O)N(c1ccc(/N=N\c3ccccc3)cc1)C2=O`, the IC50 in test [1] was 59.5 µM; in test [2], greater than 200 µM; in test [3], 104 µM; in test [5], greater than 200 µM. In addition, the inhibition in test [4] was found to be 91.9%.
Consider `COc1ccc(N2C(=O)c3ccccc3C2=O)cc1`, for which the IC50 in test [1], in test [2], in test [3] and in test [5] was greater than 200 µM in each case. Further, the inhibition in test [4] was determined as 87.3%.
On to `N#Cc1ccccc1N1C(=O)c2ccccc2C1=O`, for which the 50% inhibitory concentration (IC50) in test [1], in test [2], in test [3] and in test [5] was greater than 200 µM throughout. Further, in test [4], the inhibition was 80.1%.
For the molecule `Nc1cccc(N2C(=O)c3cccc4cccc(c34)C2=O)c1`, the IC50 in test [1] was greater than 200 µM; in test [2], greater than 200 µM; in test [3], 147 µM; in test [5] it was greater than 200 µM. Besides, the inhibition in test [4] came to 81.4%.
As to `O=C1c2ccccc2C(=O)N1c1ccc(-c2ccccc2)cc1`, the IC50 in test [1] is 119 µM; in test [2], greater than 200 µM; in test [3] it was 40.4 µM; in test [5], greater than 200 µM. The inhibition in test [4] stood at 84.6%.
Take `O=C1C2C3C=CC(CC3)C2C(=O)N1c1ccc(-c2ccccc2)cc1` (stereo unspecified): the IC50 in test [1] is 104 µM; in test [2] it was greater than 200 µM; in test [3], 46.3 µM. For the same molecule, in test [4], the inhibition is 86.6%.
For `Nc1cccc(N2C(=O)C3C4C=CC(CC4)C3C2=O)c1` (stereo unspecified), the IC50 in test [1] is 64.1 µM; in test [3], 53.4 µM; in test [5] it was greater than 200 µM. The inhibition in test [4] was 68.4%.
Consider `Nc1ccc(N2C(=O)[C@@H]3C4C=CC(CC4)[C@@H]3C2=O)cc1`, for which the values for the IC50 in test [1] and in test [3] were 166 µM and greater than 200 µM, respectively. Moreover, in test [4], the inhibition came out at 87.9%.
Regarding `Cc1cccc2c1C(=O)N(Cc1ccc(N)cc1)C2=O`, the IC50 in test [1], in test [2] and in test [5] was greater than 200 µM each time. In test [4], the inhibition was determined as 80.7%.
In the case of `Nc1ccc(CN2C(=O)c3ccccc3C2=O)cc1`, the IC50 in test [1], in test [2] and in test [5] was greater than 200 µM throughout. Also, in test [4], the inhibition was determined as 81.4%.
Regarding `Cc1ccc2c(c1)C(=O)N(c1ccc([N+](=O)[O-])cn1)C2=O`, the IC50 in test [1] was greater than 200 µM; in test [2], greater than 200 µM; in test [3] it was 172 µM; in test [5] it was greater than 200 µM. Moreover, the inhibition in test [4] is 74.8%.
As for `Nc1ccc(N2C(=O)c3cccc4cccc(c34)C2=O)cc1`, the IC50 in test [1] is greater than 200 µM; in test [2], greater than 200 µM; in test [3] it was 43.9 µM; in test [5], greater than 200 µM. For the same molecule, the inhibition in test [4] was found to be 90.6%.
Regarding `O=C1c2ccccc2C(=O)N1c1ccccc1N1C(=O)c2ccccc2C1=O`, the IC50 was greater than 200 µM in test [1], greater than 200 µM in test [2], 56.8 µM in test [3] and greater than 200 µM in test [5]. In addition, the inhibition in test [4] came out at 85.3%.
For the molecule `O=C1C2C3C=CC(CC3)C2C(=O)N1c1ccc(Cl)cn1` (stereo unspecified), the IC50 in test [1], in test [2], in test [3] and in test [5] was greater than 200 µM each time. For the same molecule, the inhibition in test [4] stood at 44.9%.
As for `O=C1c2cccc3cccc(c23)C(=O)N1c1ccccc1`, the IC50 in test [1] was greater than 200 µM; in test [2], greater than 200 µM; in test [3], 44.2 µM; in test [5], greater than 200 µM. The inhibition in test [4] was determined as 67.6%.
`O=C1CCC(N2C(=O)c3ccccc3C2=O)C(=O)N1` (stereo unspecified): in test [4], the inhibition is 28.2%.
`O=C1c2ccccc2C(=O)N1c1ccccc1` [N-PHENYL-PHTHALIMIDE]: the IC50 in test [1], in test [2] and in test [3] was greater than 200 µM each time. Moreover, the inhibition in test [4] stood at 89.2%.
Turning to `Nc1ccccc1CN1C(=O)C2C3C=CC(CC3)C2C1=O` (stereo unspecified), the IC50 in test [1], in test [2] and in test [5] was greater than 200 µM throughout. For the same molecule, in test [4], the inhibition amounted to 75.5%.
`O=C1c2ccccc2C(=O)N1c1ccc(Cl)cc1`: the values for the IC50 in test [1], in test [2] and in test [3] were greater than 200 µM, greater than 200 µM and 178 µM, respectively. Besides, the inhibition in test [4] was 71.5%.
Turning to `Nc1ccccc1N1C(=O)C2C3C=CC(CC3)C2C1=O` (stereo unspecified), the IC50 was 67.6 µM in test [1], greater than 200 µM in test [2], 32.5 µM in test [3] and greater than 200 µM in test [5]. The inhibition in test [4] was determined as 76.9%.
For the molecule `Cc1ccc2c(c1)C(=O)N(c1ccc(-c3ccccc3)cc1)C2=O`, the values for the IC50 in test [1], in test [3] and in test [5] were 59.5 µM, 104 µM and greater than 200 µM, respectively. Besides, the inhibition in test [4] amounted to 70.9%.
Regarding `O=C1c2ccccc2C(=O)N1c1ccc(Cl)cn1`, the IC50 in test [1] was 67.2 µM; in test [2], greater than 200 µM; in test [3], 56.7 µM; in test [5], greater than 200 µM. Moreover, the inhibition in test [4] was 94.5%.
For `COc1ccc(N2C(=O)C3C4C=CC(CC4)C3C2=O)cc1` (stereo unspecified), the IC50 in test [1], in test [2] and in test [3] was greater than 200 µM each time. For the same molecule, the inhibition in test [4] stood at 84.6%.
As for `CC1=C(C)C(=O)N(Cc2ccccc2N)C1=O`, the IC50 in test [1] was 139 µM; in test [2] it was greater than 200 µM; in test [5] it was greater than 200 µM. Moreover, in test [4], the inhibition came to 72.8%.
